Measured values: patent US20130059730A1, “INSECTICIDAL COMBINATION” (Kyoyu Agri Company, Ltd., priority 2010, published 2013)

What was measured:
Format in all cases: in vivo
[1] = system: Two-spotted spider mite (Tetranychus urticae), sensitive strain to hexythiazox, pyridaben and/or fenpyroximate; assay: Example 1: two-spotted spider mite egg/larva efficacy on sprayed kidney bean leaves; settings: 7 days after spray
Excerpt: (§1) The action to be expected E for a given active ingredient combination obeys the so-called COLBY formula and can be calculated as follows (COLBY, S.R. “Calculating synergistic and antagonistic responses of herbicide combination”. Weeds, Vol. 15, pages 20-22; 1967): • ppm=milligrams of active ingredient (=a.i.) per liter of spray mixture • X=% action by active ingredient A) using p ppm of active ingredient • Y=% action by active ingredient B) using q ppm of active ingredient.
(§2) According to COLBY, the expected (additive) action of active ingredients A)+B) using p+q ppm of active ingredient is
(§3) If the action actually observed (0) is greater than the expected action (E), then the action of the combination is super-additive, i.e. there is a synergistic effect.
(§4) Two-spotted spider mites (sensitive strain to hexythiazox, pyridaben and/or fenpyroximate) were allowed to oviposit on leaves of kidney beans for one day, and the female adults were then removed. The leaves were sprayed by a rotating application tower at 200 ml/m^2 of the predetermined concentration prepared from a product (e.g. the mixture according to the instant invention and the solo active ingredients). Seven days thereafter, the number of unhatched eggs and dead larvae was examined, whereby the live egg rate (%) was determined. The efficacy (observed %) against eggs and larvae is, therefore, calculated based on the following formula: […]

[2] = system: Two-spotted spider mite (Tetranychus urticae), resistant strain to hexythiazox, pyridaben and/or fenpyroximate; assay: Example 2: two-spotted spider mite, resistant strain, egg/larva efficacy
Excerpt: as §1, §2, §3, §4
The Example 2 is conducted with use of two-spotted spider mite (resistant strain to hexythiazox, pyridaben and/or fenpyroximate) in a manner similar to that of Example 1.

[3] = system: Kanzawa spider mite (Tetranychus kanzawai), resistant strain to hexythiazox, pyridaben and/or fenpyroximate; assay: Example 4: kanzawa spider mite, resistant strain, egg/larva efficacy
Excerpt: as §1, §2, §3, §4
The Example 4 is conducted with use of kanzawa spider mite (resistant strain to hexythiazox, pyridaben and/or fenpyroximate) in a manner similar to that of Example 1.

[4] = system: Two-spotted spider mite (Tetranychus urticae), sensitive strain to hexythiazox, pyridaben and/or fenpyroximate; assay: Example 5: two-spotted spider mite, sensitive strain, egg/larva efficacy (other ratio)
Excerpt: as §1, §2, §3, §4
The Example 5 is conducted with use of two-spotted spider mite (sensitive strain to hexythiazox, pyridaben and/or fenpyroximate) in a manner similar to that of Example 1.

[5] = system: Kanzawa spider mite (Tetranychus kanzawai), sensitive strain to hexythiazox, pyridaben and/or fenpyroximate; assay: Example 3: kanzawa spider mite, sensitive strain, egg/larva efficacy
Excerpt: as §1, §2, §3, §4
The Example 3 is conducted with use of kanzawa spider mite (sensitive strain to hexythiazox, pyridaben and/or fenpyroximate) in a manner similar to that of Example 1.

Row | Compound | observed (%) efficacy against eggs and larvae ([1]; rate 0.16 ppm) [%] | observed (%) efficacy against eggs and larvae ([1]; rate 0.31 ppm) [%] | observed (%) efficacy against eggs and larvae ([2]; rate 0.63 ppm) [%] | observed (%) efficacy against eggs and larvae ([2]; rate 1.25 ppm) [%] | observed (%) efficacy against eggs and larvae ([3]; rate 0.63 ppm) [%] | observed (%) efficacy against eggs and larvae ([3]; rate 1.25 ppm) [%] | observed (%) efficacy against eggs and larvae ([4]; rate 0.06 ppm) [%] | observed (%) efficacy against eggs and larvae ([4]; rate 0.13 ppm) [%] | observed (%) efficacy against eggs and larvae ([5]; rate 0.16 ppm) [%] | observed (%) efficacy against eggs and larvae ([5]; rate 0.31 ppm) [%] | observed (%) efficacy against eggs and larvae ([1]; rate 0.06 ppm) [%] | observed (%) efficacy against eggs and larvae ([1]; rate 0.11 ppm) [%] | observed (%) efficacy against eggs and larvae ([2]; rate 0.23 ppm) [%] | observed (%) efficacy against eggs and larvae ([2]; rate 0.45 ppm) [%] | observed (%) efficacy against eggs and larvae ([3]; rate 0.23 ppm) [%] | observed (%) efficacy against eggs and larvae ([3]; rate 0.45 ppm) [%] | observed (%) efficacy against eggs and larvae ([4]; rate 0.19 ppm) [%] | observed (%) efficacy against eggs and larvae ([4]; rate 0.38 ppm) [%] | observed (%) efficacy against eggs and larvae ([5]; rate 0.06 ppm) [%] | observed (%) efficacy against eggs and larvae ([5]; rate 0.11 ppm) [%]
1 | CCOc1cc(C(C)(C)C)ccc1C1COC(c2c(F)cccc2F)=N1 (centres unmarked) [Etoxazole, etoxazole] | 40.6 | 77.7 | 9.3 | 10.5 | 19.4 | 70.1 | 0.0 | 15.1 | 13.6 | 60.8 |  |  |  |  |  |  |  |  |  | 
2 | abamectin |  |  |  |  |  |  |  |  |  |  | 0.0 | 9.4 | 0.9 | 6.4 | 6.3 | 43.6 | 8.7 | 5.0 | 2.1 | 1.3
